According to patent publication US10781236B2, “Bacteriocin composition and method” (priority 2015, dated 2020):
Values after ≈ are worked out from the molar mass of the structure shown. Where two headings read alike, the source gives them in different places. Where a SMILES comes first, the peptide text is derived from it.

Experiments:
[1] = Tryptophan-to-alanine GarA variants, antibacterial activity; type: cell-based; conditions: in combination with the other peptides of Garvicin KS
Experimental: The three tryptophan residues in GarA were replaced one by one with alanine (Table 9). Antibacterial activity was tested when used in combination with the other peptides of Garvicin KS.

L. lactis IL1403 = type: cell-based, Lactococcus lactis
Experimental: The bacteriocin activity was assayed using a microtitre plate assay (Holo et al., 1991, supra). The plates were incubated at 30° C. for 8 h and the growth was measured spectrophotometrically at 600 nm (A600) with 15 min intervals using SPECTROstarNano (BMG LABTECH, Germany). The MIC was defined as the minimal bacteriocin concentration that inhibited the growth of the indicator strain by at least 50% (50% of the turbidity of the control culture without bacteriocin) in 200 μl culture. MIC is equal to one bacteriocin unit (BU).
All the peptides in the experiments were synthesized by Pepmic Co., LTD, China with 90-99% purity except for CerHA, CerHB and CerVC (85% purity). Aureocin A70F is almost identical to bacteriocin AureocinA70, both being made up of four peptides (peptide A, B, C and D) but in peptide D of Aureocin A70F leucine 29 is replaced with phenylalanine (EWU40578.1). Synthesized peptides were solubilized to a concentration of 0.1 to 10 mg/ml in 0.1% (vol/vol) trifluoroacetic acid and stored at −20° C. until use.
The three identified peptides termed GarKosA, GarKosB and GarKosC were chemically synthesized and tested for antimicrobial activity. The antimicrobial activity of the individual peptides was assessed against L. lactis IL1403 (Table 6).

| Compound | MIC, single peptide (L. lactis IL1403; IL1403, 8 h) | also measured |
| --- | --- | --- |
| MGAIIKAGAKIVGKGVLGGGASWLGANVGEKIWK (Altered Sequence of GarA from Lactococcus garvieae with W26A Mutation) [GarA-26A] |  | antibacterial activity in words [1]: no antibacterial activity |
| CC[C@H](C)[C@H](NC(=O)[C@H](C)NC(=O)CNC(=O)[C@@H](N)CCSC)C(=O)N[C@H](C(=O)N[C@@H](CCCCN)C(=O)N[C@@H](C)C(=O)NCC(=O)N[C@@H](C)C(=O)N[C@@H](CCCCN)C(=O)N[C@H](C(=O)N[C@H](C(=O)NCC(=O)N[C@@H](CCCCN)C(=O)NCC(=O)N[C@@H](C)C(=O)N[C@@H](CC(C)C)C(=O)N[C@H](C(=O)NCC(=O)NCC(=O)NCC(=O)N[C@H](C(=O)N[C@@H](Cc1c[nH]c2ccccc12)C(=O)N[C@@H](CC(C)C)C(=O)N[C@@H](C)C(=O)N[C@@H](CCC(=O)O)C(=O)N[C@@H](CCCCN)C(=O)N[C@@H](CC(C)C)C(=O)N[C@@H](Cc1ccccc1)C(=O)NCC(=O)NCC(=O)N[C@@H](CCCCN)C(=O)O)C(C)C)[C@@H](C)O)C(C)C)[C@@H](C)CC)[C@@H](C)CC [Kos C] (H-MGAIIKAGAKIVGKGALTGGGVWLAEKLFGGK-OH; N-terminus and C-terminus assumed) |  | MIC, single peptide (L. lactis IL1403; L. lactis IL1403, synthetic single peptide, >=50% growth inhibition): 6 µM (≈ 18.6 µg/mL) |
| CC[C@H](C)[C@H](NC(=O)[C@H](CCCNC(=N)N)NC(=O)[C@@H](NC(=O)CNC(=O)[C@H](C)NC(=O)[C@H](CCC(=O)O)NC(=O)[C@H](Cc1c[nH]c2ccccc12)NC(=O)CNC(=O)[C@H](CC(C)C)NC(=O)[C@H](Cc1c[nH]c2ccccc12)NC(=O)[C@H](CO)NC(=O)[C@H](C)NC(=O)[C@H](C)NC(=O)[C@@H](NC(=O)CNC(=O)CNC(=O)[C@@H](NC(=O)[C@@H](NC(=O)[C@H](CCCCN)NC(=O)[C@H](CC(C)C)NC(=O)CNC(=O)CNC(=O)[C@H](CCCCN)NC(=O)[C@@H](NC(=O)[C@@H](NC(=O)[C@H](C)NC(=O)CNC(=O)[C@@H](N)CCSC)C(C)C)C(C)C)[C@@H](C)CC)[C@@H](C)CC)[C@@H](C)O)[C@@H](C)O)C(=O)N[C@@H](Cc1c[nH]c2ccccc12)C(=O)N[C@@H](CCCCN)C(=O)O [CerV C] (H-MGAVVKGGLKIIGGTAASWLGWEAGTRIWK-OH; N-terminus and C-terminus assumed) | >6 µM |  |
| CC[C@H](C)[C@H](NC(=O)[C@H](CCCCN)NC(=O)[C@H](CCCCN)NC(=O)[C@H](CC(C)C)NC(=O)CNC(=O)CNC(=O)[C@H](Cc1ccc(O)cc1)NC(=O)[C@@H](NC(=O)[C@H](C)NC(=O)CNC(=O)CNC(=O)[C@H](C)NC(=O)[C@@H](NC(=O)CNC(=O)CNC(=O)[C@H](C)NC(=O)[C@H](Cc1ccccc1)NC(=O)[C@H](C)NC(=O)[C@H](CCCCN)NC(=O)CNC(=O)[C@H](CC(C)C)NC(=O)[C@H](CCSC)NC(=O)[C@H](CCCCN)NC(=O)[C@@H](NC(=O)[C@H](C)NC(=O)[C@H](C)NC(=O)CNC(=O)[C@@H](N)CCSC)C(C)C)C(C)C)[C@@H](C)O)C(=O)N[C@@H](Cc1ccccc1)C(=O)NCC(=O)O [CerV B] (H-MGAAVKMLGKAFAGGVAGGATYGGLKKIFG-OH; N-terminus and C-terminus assumed) | >6 µM |  |
